Marks after values point to notes of the source that are not given here.
Legend:
[1] = tested on: Streptococcus mutans (RCMB 0100172); test: Inhibition zone, agar cup diffusion; details: RCMB0100172, 24 h, read-out: inhibition zones (IZ) S. mutans
[2] = tested on: Staphylococcus epidermidis (RCMB 0100183); test: Inhibition zone, agar cup diffusion; details: RCMB0100183, 24 h, read-out: inhibition zones (IZ) S. epidermidis
[3] = target: T1, human recombinant COX-2 (Homo sapiens, UniProt P35354); test: In vitro COX-2 enzymatic assay (Cayman kit 560131); details: for SI COX-1/COX-2: COX-2 selectivity index: COX-1 IC50/COX-2 IC50
T1 sequence (P35354 18-604): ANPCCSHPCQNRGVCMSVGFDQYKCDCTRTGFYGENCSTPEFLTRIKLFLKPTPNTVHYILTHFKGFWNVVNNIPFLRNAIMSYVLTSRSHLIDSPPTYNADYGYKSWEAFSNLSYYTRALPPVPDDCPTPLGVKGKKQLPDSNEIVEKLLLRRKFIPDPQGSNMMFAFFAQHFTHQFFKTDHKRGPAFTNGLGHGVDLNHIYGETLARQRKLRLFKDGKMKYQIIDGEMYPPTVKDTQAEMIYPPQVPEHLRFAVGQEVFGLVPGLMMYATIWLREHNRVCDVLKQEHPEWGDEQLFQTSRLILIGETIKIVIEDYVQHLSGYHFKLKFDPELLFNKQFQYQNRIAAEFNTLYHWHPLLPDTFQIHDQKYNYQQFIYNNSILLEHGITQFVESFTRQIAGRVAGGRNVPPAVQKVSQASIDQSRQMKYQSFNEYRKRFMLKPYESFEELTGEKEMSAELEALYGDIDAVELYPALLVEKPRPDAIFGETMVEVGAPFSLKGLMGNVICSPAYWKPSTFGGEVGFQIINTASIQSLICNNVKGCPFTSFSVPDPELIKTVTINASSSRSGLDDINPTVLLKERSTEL

[4] = tested on: Proteus vulgaris (RCMB 010085); test: Inhibition zone, agar cup diffusion; details: RCMB010085, 24 h, read-out: inhibition zones (IZ) P. vulgaris
[5] = tested on: Gram-positive and Gram-negative bacteria; test: In vitro antibacterial screening, whole panel; format: cell-based; details: whole bacterial panel, result in words
[6] = tested on: carrageenan-induced paw edoema; test: Carrageenan-induced paw edoema in mice; details: for ED50: Mus musculus, 8 h, read-out: ED50 (95% confidence level); for Thickness of edoema 0h / percentage anti-inflammatory activity (AI%) 2h / Thickness of edoema 2h / percentage anti-inflammatory activity (AI%) 4h / Thickness of edoema 4h / percentage anti-inflammatory activity (AI%) 6h / Thickness of edoema 6h / Thickness of edoema 8h: mice, po 10 µmol/kg b.wt.; for Thickness of edoema 0h: 0 h (before carrageenan); for Thickness of edoema 0h / Thickness of edoema 2h / Thickness of edoema 4h / Thickness of edoema 6h / Thickness of edoema 8h: Mean ± SEM, n = 5; for Thickness of edoema 2h: 2 h after carrageenan; for Thickness of edoema 4h: 4 h after carrageenan; for Thickness of edoema 6h: 6 h after carrageenan; for Thickness of edoema 8h: 8 h after carrageenan
[7] = tested on: Shigella dysenteriae (RCMB 0100542); test: Inhibition zone, agar cup diffusion; format: cell-based; details: RCMB0100542, 24 h, read-out: inhibition zones (IZ) S. dysenteriae
[8] = tested on: Bacillus subtilis (RCMB 0100162); test: Inhibition zone, agar cup diffusion; details: RCMB0100162, 24 h, read-out: inhibition zones (IZ) B. subtillis
[9] = tested on: E. coli C11; details: for ED50, protective effect against bacteremic infection, Escherichia coli: mice, challenge dose 7.1x10^3 CFU/mouse ip, intragastric once a day for 7 days, survival
[10] = tested on: S. aureus Smith; details: for ED50: Staphylococcus aureus, in Mus musculus, read-out: ED50 against S. aureus infection; for ED50, protective effect against bacteremic infection, Staphylococcus aureus: mice, challenge dose 9.5x10^6 CFU/mouse ip, intragastric once a day for 7 days, survival
[11] = tested on: Salmonella typhi (RCMB 0100104); test: Inhibition zone, agar cup diffusion; format: cell-based; details: Salmonella enterica, 24 h, read-out: inhibition zones (IZ) S. typhi
[12] = tested on: Pseudomonas aeruginosa (RCMB 0100243); test: Inhibition zone, agar cup diffusion; details: RCMB0100243, 24 h, read-out: inhibition zones (IZ) P.aeruginosa
[13] = tested on: gastric layers; test: Gastric ulcerogenic activity; details: fasted male Wistar rats, oral 30 µmol/kg twice at 4 h interval
[14] = tested on: Escherichia coli (RCMB 010052); test: Inhibition zone, agar cup diffusion; details: RCMB010052, 24 h, read-out: inhibition zones (IZ) E.coli
[15] = tested on: Staphylococcus aureus (RCMB 0100183); test: Inhibition zone, agar cup diffusion; details: RCMB0100183, 24 h, read-out: inhibition zones (IZ) S. aureus
[16] = target: T2, ovine COX-1 (Ovis aries, UniProt P05979); test: In vitro COX-1 enzymatic assay (Cayman kit 560131); format: biochemical; details: Mean ± SEM of triplicate determinations
T2 construct: purchased Cayman Chemicals Inc. 560131
T2 sequence (P05979 25-600): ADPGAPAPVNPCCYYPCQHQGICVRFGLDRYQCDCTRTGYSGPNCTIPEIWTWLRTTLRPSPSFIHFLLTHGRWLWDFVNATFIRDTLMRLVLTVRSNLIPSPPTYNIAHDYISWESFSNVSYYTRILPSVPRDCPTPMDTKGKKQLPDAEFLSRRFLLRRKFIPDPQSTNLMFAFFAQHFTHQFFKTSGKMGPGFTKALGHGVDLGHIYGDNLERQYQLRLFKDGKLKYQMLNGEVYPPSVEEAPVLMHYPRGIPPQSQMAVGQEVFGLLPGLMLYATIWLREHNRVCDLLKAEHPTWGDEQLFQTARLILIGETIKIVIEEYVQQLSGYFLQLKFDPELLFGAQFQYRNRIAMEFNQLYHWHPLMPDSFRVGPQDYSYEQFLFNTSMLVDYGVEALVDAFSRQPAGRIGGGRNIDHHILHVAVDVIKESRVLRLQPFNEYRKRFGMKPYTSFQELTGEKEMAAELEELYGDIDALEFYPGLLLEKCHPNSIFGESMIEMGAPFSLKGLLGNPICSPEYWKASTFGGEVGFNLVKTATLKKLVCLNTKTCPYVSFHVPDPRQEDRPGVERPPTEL

[17] = tested on: PGE2; test: Estimation of rat plasma PGE2; details: po 10 µmol/kg b.wt., 8 h after carrageenan; for % inhibition of PGE2-production: rat serum; for PGE2 serum conc.: rat, Mean ± SEM, n = 5

SMILES	zone of inhibition at 1000 µg/mL [1] [mm]	zone of inhibition at 1000 µg/mL [2] [mm]	IC50 [3] [nM]	SI COX-1/COX-2 [3]	zone of inhibition at 1000 µg/mL [4] [mm]	in vitro antibacterial activity [5]	ED50 [6] [µmol/kg]	Thickness of edoema 0h [6] [mm]	percentage anti-inflammatory activity (AI%) 2h [6]	Thickness of edoema 2h [6]	percentage anti-inflammatory activity (AI%) 4h [6]	Thickness of edoema 4h [6]	percentage anti-inflammatory activity (AI%) 6h [6]	Thickness of edoema 6h [6]	Thickness of edoema 8h [6]	zone of inhibition at 1000 µg/mL [7] [mm]	zone of inhibition at 1000 µg/mL [8] [mm]	ED50, protective effect against bacteremic infection, Escherichia coli [9] [µmol/kg/day]	ED50 [10] [µmol/kg]	ED50, protective effect against bacteremic infection, Staphylococcus aureus [10] [µmol/kg/day]	other results
O=C(c1cc(/N=N/c2ccc(S(=O)(=O)Nc3ncccn3)cc2)ccc1O)N1CCCCC1 [Compound 5j, 4-((4-Hydroxy-3-(piperidine-1-carbonyl)phenyl)diazenyl)-N-(pyrimidin-2-yl) benzenesulfonamide]	27	30	50 ± 0.5	239.2	17	weak in vitro antibacterial activity	10.9	0.67 ± 0.02	(15.79%)	0.80 ± 0.01^c mm	(51.39%)	0.70 ± 0.01^c mm	(70.73%)	0.60 ± 0.01^c mm	0.53 ± 0.01^c mm	25	19	272.7	302	302.1	ED50 ([9]; Escherichia coli, C11, in Mus musculus, read-out: ED50 against E.coli infection): 273 µmol/kg; zone of inhibition at 1000 µg/mL [11]: 15 mm; zone of inhibition at 1000 µg/mL [12]: 16 mm; Gastric ulcerogenic effect, histopathological examination of gastric layers [13]: gastrointestinal safety profile; zone of inhibition at 1000 µg/mL [14]: 14 mm; zone of inhibition at 1000 µg/mL [15]: 28 mm; IC50 [16]: 12.2 ± 0.06 µM; % inhibition of PGE2-production [17]: 83.25%; PGE2 serum conc. [17]: 221.236 ± 4.62 pg/mL
O=C(c1cc(/N=N/c2ccc(S(=O)(=O)Nc3ncccn3)cc2)ccc1O)N1CCOCC1 [Compound 5n, 4-((4-Hydroxy-3-(morpholine-4-carbonyl)phenyl)diazenyl)-N-(pyrimidin-2-yl) benzenesulfonamide]	28	33	70 ± 0.5	153.6	18	weak in vitro antibacterial activity	14.4	0.66 ± 0.004	(-8.42%)	1.03 ± 0.03 mm	(10.42%)	1.29 ± 0.01 mm	(51.71%)	0.99 ± 0.05 mm	0.90 ± 0.01 mm	24	17	367.1	353 to 413	397.6	zone of inhibition at 1000 µg/mL [11]: 14 mm; zone of inhibition at 1000 µg/mL [12]: 14 mm; Gastric ulcerogenic effect, histopathological examination of gastric layers [13]: gastrointestinal safety profile; zone of inhibition at 1000 µg/mL [14]: 17 mm; zone of inhibition at 1000 µg/mL [15]: 16 mm; IC50 [16]: 10.6 ± 0.08 µM; % inhibition of PGE2-production [17]: 55.18%; PGE2 serum conc. [17]: 591.842 ± 5.96 pg/mL
Cc1ccnc(NS(=O)(=O)c2ccc(/N=N/c3ccc(O)c(C(=O)N4CCOCC4)c3)cc2)n1 [Compound 5o, 4-((4-Hydroxy-3-(morpholine-4-carbonyl)phenyl)diazenyl)-N-(4-methylpyrimidin-2-yl) benzenesulfonamide]	27	35	60 ± 0.8	211.5	19	weak in vitro antibacterial activity	13.3	0.65 ± 0.004	(6.32%)	0.89 ± 0.01^c mm	(43.06%)	0.82 ± 0.02^c mm	(63.41%)	0.75 ± 0.02^c mm	0.64 ± 0.02^c mm	23	20	306.4	353 to 413	352.7	zone of inhibition at 1000 µg/mL [11]: 18 mm; zone of inhibition at 1000 µg/mL [12]: 18 mm; Gastric ulcerogenic effect, histopathological examination of gastric layers [13]: erosion in the gastric layers; zone of inhibition at 1000 µg/mL [14]: 16 mm; zone of inhibition at 1000 µg/mL [15]: 21 mm; IC50 [16]: 12.9 ± 0.05 µM; % inhibition of PGE2-production [17]: 72.92%; PGE2 serum conc. [17]: 357.636 ± 7.48 pg/mL

Source: publication PMC9225712, “Rational design of biodegradable sulphonamide candidates treating septicaemia by synergistic dual inhibition of COX-2/PGE2 axis and DHPS enzyme” (Journal of Enzyme Inhibition and Medicinal Chemistry, 2022)
